# Data as given in US7767240B2, “Microbiological control in poultry processing” (priority 2001, dated 2010).
# Several values for one entry are separate records, joined by “and”; a condition that tells them apart may be missing. Equal values may be shown once.
# Key:
# [1] = test system: Pseudomonas aeruginosa (ATCC 15442) biofilm; assay: MBEC biofilm eradication test (Calgary biofilm device); assay type: cell-based; conditions: one-hour biocide contact time; for MBEC (minimum biofilm eradication concentration): individual determinations
# Text: Table 45 summarizes test results performed at MBEC Biofilm Technologies, Inc., Calgary, Canada on the effectiveness of various biocides on biofilm removal. The test procedure, developed at the University of Calgary, utilizes a device which allows the growth of 96 identical biofilms under carefully controlled conditions. The device consists of a two-part vessel comprised of an upper plate containing 96 pegs that seals against a bottom plate. The bottom plate can consist of either a trough (for biofilm growth) or a standard 96-well plate (for biocide challenge). The biofilms develop on the 96 pegs. The device has been used as a general method for evaluating the efficacy of antibiotics and biocides towards biofilms. See in this connection H. Ceri, et al., “The MBEC Test: A New In Vitro Assay Allowing Rapid Screening for Antibiotic Sensitivity of Biofilm”, Proceedings of the ASM, 1998, 89, 525; Ceri, et al., “Antifungal and Biocide Susceptibility testing of Candida Biofilms using the MBEC Device”, Proceedings of the Interscience Conference on Antimicrobial Agents and Chemotherapy, 1998, 38, 495; and H. Ceri, et al., “The Calgary Biofilm Device: A New Technology for the Rapid Determination of Antibiotic Susceptibility of Bacterial Biofilms”, Journal of Clinical Microbiology, 1999, 37, 1771-1776.
# Six biocide systems were evaluated using the above test procedure and test equipment. Five of these systems were oxidizing biocides, viz., chlorine (from NaOCl), halogen (from NaOCl+NaBr), halogen (from BCDMH), bromine (from DBDMH), and chlorine (from trichloroisocyanuric acid), all expressed as bromine as Br2 in mg/L, so that all test results were placed on the same basis. The sixth biocide was glutaraldehyde, a non-oxidizing biocide.
# These biocide systems were used to challenge biofilms of Pseudomonas aeruginosa (ATCC 15442). This is a Gram (−) bacterium which is ubiquitous in microbiological slimes found in many water systems. See in this connection J. W. Costerton and H. Anwar, “Pseudomonas aeruginosa: The Microbe and Pathogen”, in Pseudomonas aeruginosa Infections and Treatment, A. L. Baltch and R. P. Smith editors, Marcel Dekker publishers, New York, 1994. In the field of poultry processing, S. Notermans, J. Dormans, and G. C. Mead, Biofouling, 1991, Vol. 5, pages 21-36, report observation of biofilms in poultry slaughter houses by use of scanning electron microscopy.
# In Table 45 the MBEC (minimum biofilm eradication concentration) results presented are for the one-hour biocide contact time used in the test. The values given for the halogen containing biocides are expressed in terms of mg/L of bromine as Br2. The data on the glutaraldehyde is in terms of mg/L as active ingredient. […] In fact, only slightly more than one-half as much bromine from DBDMH was required to remove the biofilm as compared to the total halogen, expressed as Br2, that was required from BCDMH.
# Enterococcus faecium = assay: AOAC test method, kill of bacterial culture; assay type: cell-based; conditions: for concentration required to achieve complete kill within 30 seconds: Enterococcus faecium, AOAC test
# Protocol: (§1) One such series of tests involved determinations of microbiological control against Escherichia coli bacteria. Another set of tests involved determinations of microbiological control against Enterococcus faecium. In each case, comparative tests were carried out in the same manner utilizing the AOAC test method. Such test involves exposing a culture of the microorganism to various concentrations of a test solution prepared from an aqueous stock solution of the compound under test. At various time intervals the halogen in the test suspensions is chemically neutralized, and the amount of viable bacteria remaining is enumerated by plating onto nutrient agar and incubating for 2 days at 37° C. Results are expressed at the log10 colony forming units (CFU). The concentration of the compound required to achieve complete kill (i.e., no viable bacteria remain) within 30 seconds is determined in the test.
# Table 44 summarizes the data obtained in the tests using respectively 1,3-dibromo-5,5-dimethylhydantoin (DBDMH) and N,N-bromochloro-5,5-dimethylhydantoin (BCDMH) and in which the microorganism in each case was Enterococcus faecium.
# Escherichia coli = assay: AOAC test method, kill of bacterial culture; assay type: cell-based; conditions: for concentration required to achieve complete kill within 30 seconds: Escherichia coli, AOAC test
# Protocol: as §1
# Table 43 summarizes the data obtained in the tests using respectively, 1,3-dibromo-5,5-dimethylhydantoin (DBDMH) and N,N′-bromochloro-5,5-dimethylhydantoin (BCDMH) and in which the microorganism in each case was Escherichia coli. It can be seen that 1,3-dibromo-5,5-dimethylhydantoin passed the test at one milligram of bromine, as […] per liter of water, as evidenced by the complete kill within 30 seconds, whereas 1,3-bromochloro-5,5-dimethylhydantoin required two milligrams of bromine, as Br2, per liter of water to achieve complete kill within 30 seconds.
# [2] = assay type: physicochemical
# Text: Another mode of applying the microbiocidally-effective amounts of solid-state microbiocides of these embodiments of the invention is to cause the microbiocide to be leached into water streams passing through conduits and into tanks or other washing devices utilized in the processing of the poultry. For example, suitable solid forms of the microbiocide, preferably a bromine-based microbiocide, such as tablets, briquettes, pellets, nuggets, or granules are placed in suitable feeding devices through which a stream of water is passed. The passage of the water through the bed of the microbiocide results in the stream continuously dissolving small quantities of the microbiocide to thereby provide microbiocidally effective amounts of the microbiocide in the water. 1,3-Dibromo-5,5-dimethylhydantoin is especially preferred for use in this mode of application because of its relatively low solubility and thus relatively slow rate of dissolution in water at ambient room temperatures. This translates into relatively long periods of use before need of refilling the device holding the solids.
# [3] = 0.5 mg/L as Br2, contact time 30 sec
# [4] = 0.5 mg/L as Br2, contact time 1 min
# [5] = 0.5 mg/L as Br2, contact time 2 min
# [6] = 0.5 mg/L as Br2, contact time 3 min
# [7] = 0.5 mg/L as Br2, contact time 4 min
# [8] = 0.5 mg/L as Br2, contact time 5 min
# [9] = 0.5 mg/L as Br2, contact time 10 min
# [10] = 1.0 mg/L as Br2, contact time 30 sec
# [11] = 1.0 mg/L as Br2, contact time 1 min
# [12] = 1.0 mg/L as Br2, contact time 2 min
# [13] = 1.0 mg/L as Br2, contact time 3 min
# [14] = 1.0 mg/L as Br2, contact time 4 min
# [15] = 1.0 mg/L as Br2, contact time 5 min
# [16] = 1.0 mg/L as Br2, contact time 10 min
# [17] = 2.0 mg/L as Br2, contact time 30 sec
# [18] = 2.0 mg/L as Br2, contact time 1 min
# [19] = 2.0 mg/L as Br2, contact time 2 min
# [20] = 2.0 mg/L as Br2, contact time 3 min
# [21] = 2.0 mg/L as Br2, contact time 4 min
# [22] = 2.0 mg/L as Br2, contact time 5 min
# [23] = 2.0 mg/L as Br2, contact time 10 min
compound,measurement,setting,value
"CC1(C)C(=O)N(Cl)C(=O)N1Br [BCDMH, N,N′-bromochloro-5,5-dimethylhydantoin]","MBEC, avg.",[1],2.5 mg/L of bromine as Br2
same,MBEC (minimum biofilm eradication concentration),[1],"2.5, 2.5 mg/L of bromine as Br2"
same,Log10 CFU Recovered,Enterococcus faecium; [3],>4.48 Log10 CFU
same,Log10 CFU Recovered,Enterococcus faecium; [4],3.53 Log10 CFU
same,Log10 CFU Recovered,Enterococcus faecium; [5],2.63 Log10 CFU
same,Log10 CFU Recovered,Enterococcus faecium; [6],0.00 Log10 CFU
same,Log10 CFU Recovered,Enterococcus faecium; [7],0.00 Log10 CFU
same,Log10 CFU Recovered,Enterococcus faecium; [8],0.00 Log10 CFU
same,Log10 CFU Recovered,Enterococcus faecium; [9],0.00 Log10 CFU
same,Log10 CFU Recovered,Enterococcus faecium; [10],>4.48 Log10 CFU
same,Log10 CFU Recovered,Enterococcus faecium; [11],2.38 Log10 CFU
same,Log10 CFU Recovered,Enterococcus faecium; [12],0.00 Log10 CFU
same,Log10 CFU Recovered,Enterococcus faecium; [13],0.00 Log10 CFU
same,Log10 CFU Recovered,Enterococcus faecium; [14],0.00 Log10 CFU
same,Log10 CFU Recovered,Enterococcus faecium; [15],0.00 Log10 CFU
same,Log10 CFU Recovered,Enterococcus faecium; [16],0.00 Log10 CFU
same,Log10 CFU Recovered,Enterococcus faecium; [17],0.00 Log10 CFU
same,Log10 CFU Recovered,Enterococcus faecium; [18],0.00 Log10 CFU
same,Log10 CFU Recovered,Enterococcus faecium; [19],0.00 Log10 CFU
same,Log10 CFU Recovered,Enterococcus faecium; [20],0.00 Log10 CFU
same,Log10 CFU Recovered,Enterococcus faecium; [21],0.00 Log10 CFU
same,Log10 CFU Recovered,Enterococcus faecium; [22],0.00 Log10 CFU
same,Log10 CFU Recovered,Enterococcus faecium; [23],0.00 Log10 CFU
same,concentration required to achieve complete kill within 30 seconds,Enterococcus faecium,two
same,Log10 CFU Recovered,Escherichia coli; [3],>4.48 Log10 CFU
same,Log10 CFU Recovered,Escherichia coli; [4],4.46 Log10 CFU
same,Log10 CFU Recovered,Escherichia coli; [5],1.65 Log10 CFU
same,Log10 CFU Recovered,Escherichia coli; [6],0 Log10 CFU
same,Log10 CFU Recovered,Escherichia coli; [7],0 Log10 CFU
same,Log10 CFU Recovered,Escherichia coli; [8],0 Log10 CFU
same,Log10 CFU Recovered,Escherichia coli; [9],0 Log10 CFU
same,Log10 CFU Recovered,Escherichia coli; [10],>4.48 Log10 CFU
same,Log10 CFU Recovered,Escherichia coli; [11],0.7 Log10 CFU
same,Log10 CFU Recovered,Escherichia coli; [12],0 Log10 CFU
same,Log10 CFU Recovered,Escherichia coli; [13],0 Log10 CFU
same,Log10 CFU Recovered,Escherichia coli; [14],0 Log10 CFU
same,Log10 CFU Recovered,Escherichia coli; [15],0 Log10 CFU
same,Log10 CFU Recovered,Escherichia coli; [16],0 Log10 CFU
same,Log10 CFU Recovered,Escherichia coli; [17],0 Log10 CFU
same,Log10 CFU Recovered,Escherichia coli; [18],0 Log10 CFU
same,Log10 CFU Recovered,Escherichia coli; [19],0 Log10 CFU
same,Log10 CFU Recovered,Escherichia coli; [20],0 Log10 CFU
same,Log10 CFU Recovered,Escherichia coli; [21],0 Log10 CFU
same,Log10 CFU Recovered,Escherichia coli; [22],0 Log10 CFU
same,Log10 CFU Recovered,Escherichia coli; [23],0 Log10 CFU
same,concentration required to achieve complete kill within 30 seconds,Escherichia coli,two
same,solubility in water,[2],890 ppm expressed as Cl2
"CC1(C)C(=O)N(Br)C(=O)N1Br [DBDMH, 1,3-dibromo-5,5-dimethylhydantoin]","MBEC, avg.",[1],1.4 mg/L of bromine as Br2
same,MBEC (minimum biofilm eradication concentration),[1],"1.4 mg/L of bromine as Br2 and 1.4, 1.4 mg/L of bromine as Br2"
same,Log10 CFU Recovered,Enterococcus faecium; [3],4.32 Log10 CFU
same,Log10 CFU Recovered,Enterococcus faecium; [4],2.36 Log10 CFU
same,Log10 CFU Recovered,Enterococcus faecium; [5],0.00 Log10 CFU
same,Log10 CFU Recovered,Enterococcus faecium; [6],0.00 Log10 CFU
same,Log10 CFU Recovered,Enterococcus faecium; [7],0.00 Log10 CFU
same,Log10 CFU Recovered,Enterococcus faecium; [8],0.00 Log10 CFU
same,Log10 CFU Recovered,Enterococcus faecium; [9],0.00 Log10 CFU
same,Log10 CFU Recovered,Enterococcus faecium; [10],0.00 Log10 CFU
same,Log10 CFU Recovered,Enterococcus faecium; [11],0.00 Log10 CFU
same,Log10 CFU Recovered,Enterococcus faecium; [12],0.00 Log10 CFU
same,Log10 CFU Recovered,Enterococcus faecium; [13],0.00 Log10 CFU
same,Log10 CFU Recovered,Enterococcus faecium; [14],0.00 Log10 CFU
same,Log10 CFU Recovered,Enterococcus faecium; [15],0.00 Log10 CFU
same,Log10 CFU Recovered,Enterococcus faecium; [16],0.00 Log10 CFU
same,Log10 CFU Recovered,Enterococcus faecium; [17],0.00 Log10 CFU
same,Log10 CFU Recovered,Enterococcus faecium; [18],0.00 Log10 CFU
same,Log10 CFU Recovered,Enterococcus faecium; [19],0.00 Log10 CFU
same,Log10 CFU Recovered,Enterococcus faecium; [20],0.00 Log10 CFU
same,Log10 CFU Recovered,Enterococcus faecium; [21],0.00 Log10 CFU
same,Log10 CFU Recovered,Enterococcus faecium; [22],0.00 Log10 CFU
same,Log10 CFU Recovered,Enterococcus faecium; [23],0.00 Log10 CFU
same,concentration required to achieve complete kill within 30 seconds,Enterococcus faecium,one
same,Log10 CFU Recovered,Escherichia coli; [3],>4.48 Log10 CFU
same,Log10 CFU Recovered,Escherichia coli; [4],1.70 Log10 CFU
same,Log10 CFU Recovered,Escherichia coli; [5],0 Log10 CFU
same,Log10 CFU Recovered,Escherichia coli; [6],0 Log10 CFU
same,Log10 CFU Recovered,Escherichia coli; [7],0 Log10 CFU
same,Log10 CFU Recovered,Escherichia coli; [8],0 Log10 CFU
same,Log10 CFU Recovered,Escherichia coli; [9],0 Log10 CFU
same,Log10 CFU Recovered,Escherichia coli; [10],0 Log10 CFU
same,Log10 CFU Recovered,Escherichia coli; [11],0 Log10 CFU
same,Log10 CFU Recovered,Escherichia coli; [12],0 Log10 CFU
same,Log10 CFU Recovered,Escherichia coli; [13],0 Log10 CFU
same,Log10 CFU Recovered,Escherichia coli; [14],0 Log10 CFU
same,Log10 CFU Recovered,Escherichia coli; [15],0 Log10 CFU
same,Log10 CFU Recovered,Escherichia coli; [16],0 Log10 CFU
same,Log10 CFU Recovered,Escherichia coli; [17],0 Log10 CFU
same,Log10 CFU Recovered,Escherichia coli; [18],0 Log10 CFU
same,Log10 CFU Recovered,Escherichia coli; [19],0 Log10 CFU
same,Log10 CFU Recovered,Escherichia coli; [20],0 Log10 CFU
same,Log10 CFU Recovered,Escherichia coli; [21],0 Log10 CFU
same,Log10 CFU Recovered,Escherichia coli; [22],0 Log10 CFU
same,Log10 CFU Recovered,Escherichia coli; [23],0 Log10 CFU
same,concentration required to achieve complete kill within 30 seconds,Escherichia coli,one
same,solubility in water,[2],405 ppm expressed as Cl2
